Test results reported in the supplement of paper PMC10307832.

What was measured:
Assay in all cases: relative viability (nuclei count vs DMSO), 5 days (fraction); higher = more cells survive
[1] = compound: CC1=CC=C(C=C1)C(=O)CN2C3=C(CCCC3)SC2=N [Pifithrin_alpha] + COc1cc2c(Oc3ccc(NC(=O)C4(C(=O)Nc5ccc(F)cc5)CC4)cc3F)ccnc2cc1OCCCN1CCOCC1 [Foretinib] (partner 0.25 µM)
Procedure, shortened: (§1)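 A single step with final 0.05% Triton X-100, 1% formaldehyde and 1 ug/ml Hoechst fixed the cells and stained nuclei 5 days after treatment. Lung cancer cell lines in 1536-well plates had been treated by pin tool the day after seeding with one drug alone or a fixed anchor-drug dose plus five library-drug doses (not always all listed) in √10 steps, and nuclei were counted on 4× images. Relative viability is the ratio of nuclei in treated wells to nuclei in vehicle wells, taken as the median of duplicate plates.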

Axitinib + Pemetrexed = compound: CNC(=O)c1ccccc1Sc1ccc2c(/C=C/c3ccccn3)n[nH]c2c1 [Axitinib] + Nc1nc2[nH]cc(CCc3ccc(C(=O)N[C@@H](CCC(=O)O)C(=O)O)cc3)c2c(=O)[nH]1 [Pemetrexed] (partner 0.2 µM)
Procedure, shortened: as §1

Bemcentinib + Tozasertib = compound: Nc1nc(Nc2ccc3c(c2)CC[C@@H](N2CCCC2)CC3)nn1-c1cc2c(nn1)-c1ccccc1CCC2 [Bemcentinib] + Cc1cc(Nc2cc(N3CCN(C)CC3)nc(Sc3ccc(NC(=O)C4CC4)cc3)n2)n[nH]1 [Tozasertib] (partner 0.1 µM)
Procedure, shortened: as §1

Bemcentinib + Decitabine = compound: Nc1nc(Nc2ccc3c(c2)CC[C@@H](N2CCCC2)CC3)nn1-c1cc2c(nn1)-c1ccccc1CCC2 [Bemcentinib] + Nc1ncn([C@H]2C[C@H](O)[C@@H](CO)O2)c(=O)n1 [Decitabine] (partner 2 µM)
Procedure, shortened: as §1

| Cell Line | relative viability ([1]; first compound 1 µM) | relative viability ([1]; first compound 3.162 µM) | relative viability ([1]; first compound 10 µM) | relative viability ([1]; first compound 31.62 µM) | relative viability ([1]; first compound 100 µM) | relative viability (Axitinib + Pemetrexed; first compound 0.005 µM) | relative viability (Axitinib + Pemetrexed; first compound 0.01581 µM) | relative viability (Axitinib + Pemetrexed; first compound 0.05 µM) | relative viability (Axitinib + Pemetrexed; first compound 0.1581 µM) | relative viability (Axitinib + Pemetrexed; first compound 0.5 µM) | relative viability (Bemcentinib + Tozasertib; first compound 0.04 µM) | relative viability (Bemcentinib + Tozasertib; first compound 0.1265 µM) | relative viability (Bemcentinib + Tozasertib; first compound 0.4 µM) | relative viability (Bemcentinib + Tozasertib; first compound 1.265 µM) | relative viability (Bemcentinib + Tozasertib; first compound 4 µM) | relative viability (Bemcentinib + Decitabine; first compound 0.04 µM) | relative viability (Bemcentinib + Decitabine; first compound 0.1265 µM) | relative viability (Bemcentinib + Decitabine; first compound 0.4 µM) | relative viability (Bemcentinib + Decitabine; first compound 1.265 µM) | relative viability (Bemcentinib + Decitabine; first compound 4 µM) |
| --- | --- | --- | --- | --- | --- | --- | --- | --- | --- | --- | --- | --- | --- | --- | --- | --- | --- | --- | --- | --- |
| HCC-15 | 1.08 | 1.05 | 0.93 | 0.731 | 0.789 | 0.211 | 0.228 | 0.23 | 0.22 | 0.211 | 0.381 | 0.488 | 0.401 | 0.365 | 0.392 | 0.641 | 0.696 | 0.71 | 0.646 | 0.661 |
| PC-14 | 1.09 | 0.998 | 1.03 | 0.791 | 0.94 | 0.135 | 0.114 | 0.158 | 0.137 | 0.142 | 0.584 | 0.706 | 0.538 | 0.645 | 0.601 | 0.209 | 0.213 | 0.204 | 0.176 | 0.197 |
| NCI-H2085 |  | 1.11 | 1.07 | 0.78 | 0.844 | 0.903 | 0.876 | 0.905 | 0.806 | 0.808 | 0.788 | 0.974 | 0.69 | 0.797 | 0.757 | 0.539 | 0.583 | 0.498 | 0.551 | 0.554 |
| HCC-827 | 1.01 | 0.996 | 0.84 | 0.597 | 0.857 | 0.228 | 0.158 | 0.279 | 0.296 | 0.275 | 0.474 | 0.458 | 0.421 | 0.408 | 0.417 | 0.34 | 0.347 | 0.316 | 0.292 | 0.332 |
| ChaGo-K-1 | 0.917 | 0.985 | 0.871 | 0.828 | 0.814 | 0.27 | 0.262 | 0.252 | 0.267 | 0.274 | 0.217 | 0.254 | 0.213 | 0.229 | 0.221 | 0.566 | 0.537 | 0.538 | 0.536 | 0.556 |
| H3255 | 0.716 | 0.949 | 0.827 | 0.777 | 0.92 | 0.531 | 0.527 | 0.568 | 0.568 | 0.578 | 0.566 | 0.678 | 0.619 | 0.782 | 0.655 |  | 0.574 | 0.681 | 0.648 | 0.68 |
| LOU-NH91 | 0.841 | 0.874 | 0.935 | 0.868 | 0.874 | 0.392 | 0.402 | 0.406 | 0.421 | 0.395 | 0.651 | 0.639 | 0.635 | 0.709 | 0.63 | 0.78 | 0.82 | 0.837 | 0.863 | 0.801 |
| LK-2 | 1.18 | 1.64 | 1.48 |  | 1.62 | 0.26 | 0.216 | 0.234 | 0.258 | 0.242 | 0.166 | 0.164 | 0.19 | 0.178 | 0.168 | 0.214 | 0.374 | 0.342 | 0.23 | 0.313 |
| EPLC-272H | 0.601 | 0.66 | 0.632 | 0.424 | 0.695 | 0.333 | 0.341 | 0.302 | 0.381 | 0.336 | 0.281 | 0.207 | 0.249 | 0.252 | 0.261 | 0.373 | 0.361 | 0.387 | 0.397 | 0.399 |
| NCI-H441 | 0.974 | 1.17 | 1.04 |  | 0.925 | 0.271 | 0.305 | 0.232 | 0.248 | 0.265 | 0.733 | 0.847 | 0.781 | 0.649 | 0.611 | 0.208 | 0.276 | 0.218 | 0.236 | 0.255 |
| NCI-H23 | 0.9 | 1.19 | 1.08 |  | 0.872 | 0.678 | 0.751 | 0.583 | 0.665 | 0.713 | 0.389 | 0.632 | 0.327 | 0.407 | 0.366 | 0.305 | 0.302 | 0.297 | 0.31 | 0.328 |
| NCI-H647 | 1.07 | 1.25 | 1.04 | 0.724 | 1.11 | 0.21 | 0.149 | 0.2 | 0.184 | 0.209 | 0.304 | 0.286 | 0.28 | 0.317 | 0.246 | 0.386 | 0.296 | 0.494 | 0.368 | 0.454 |
| LXF-289 | 1.02 | 1.05 | 0.995 | 0.888 | 1.01 | 1.01 | 0.91 | 0.968 | 0.888 | 0.982 | 0.179 | 0.2 | 0.185 | 0.185 | 0.205 | 0.431 | 0.323 | 0.417 | 0.398 | 0.364 |
| NCI-H596 | 0.924 | 0.737 | 0.823 | 0.735 | 0.958 | 0.517 | 0.483 | 0.676 | 0.533 | 0.433 | 0.87 | 1.05 | 1.14 | 0.94 | 0.799 | 1 | 1.04 | 1.09 | 1.1 | 1.08 |
